# Test results from paper PMC12090182, “Repurposing of the RIPK1-Selective Benzo[1,4]oxazepin-4-one Scaffold for the Development of a Type III LIMK1/2 Inhibitor” (ACS Chemical Biology, 2025).
# Experiments:
# Experiment in all cases: scanMAX KINOMEscan (Eurofins)
# Type in all cases: binding
# [1] = molecular target: PRKD2 (Homo sapiens, UniProt Q9BZL6); details: 1000 nM, read-out: Percent Control
# From the text: (§1) Supplement cb5c00097_si_002.xlsx, sheet "Table S6 (Eurofins Selectivity)" | column: Percent Control
# [2] = molecular target: RSK4(Kin.Dom.2-C-terminal) (Homo sapiens, UniProt Q9UK32); details: 1000 nM, read-out: Percent Control
# From the text: as §1
# [3] = molecular target: NEK11 (Homo sapiens, UniProt Q8NG66); details: 1000 nM, read-out: Percent Control
# From the text: as §1
# [4] = molecular target: HASPIN (Homo sapiens, UniProt Q8TF76); details: 1000 nM, read-out: Percent Control
# From the text: as §1
# [5] = molecular target: CDKL1 (Homo sapiens, UniProt Q00532); details: read-out: Percent Control
# Sequence of CDKL1 (Q00532 whole entry): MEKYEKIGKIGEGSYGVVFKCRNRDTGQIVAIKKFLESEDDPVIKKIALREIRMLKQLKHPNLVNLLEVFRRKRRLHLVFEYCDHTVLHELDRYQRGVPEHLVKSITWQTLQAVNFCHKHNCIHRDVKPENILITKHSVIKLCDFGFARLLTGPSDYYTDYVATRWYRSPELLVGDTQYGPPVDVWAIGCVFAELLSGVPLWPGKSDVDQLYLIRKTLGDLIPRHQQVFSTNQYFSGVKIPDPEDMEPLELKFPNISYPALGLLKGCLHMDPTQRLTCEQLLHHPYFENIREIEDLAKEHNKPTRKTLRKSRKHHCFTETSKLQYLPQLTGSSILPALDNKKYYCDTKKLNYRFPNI
# From the text: as §1
# [6] = molecular target: ITK (Homo sapiens, UniProt Q08881); details: 1000 nM, read-out: Percent Control
# From the text: as §1
# [7] = molecular target: MST3 (Homo sapiens, UniProt Q9Y6E0); details: 1000 nM, read-out: Percent Control
# From the text: as §1
# [8] = molecular target: MEK2 (Homo sapiens, UniProt P36507); details: compound concentration 100 nM; Entrez MAP2K2; read-out: Percent Control
# From the text: as §1
# [9] = molecular target: PIM3 (Homo sapiens, UniProt Q86V86); details: 1000 nM, read-out: Percent Control
# From the text: as §1
# [10] = molecular target: CSNK1G2 (Homo sapiens, UniProt P78368); details: read-out: Percent Control
# From the text: as §1
# [11] = molecular target: PKNB(M.tuberculosis) (Mycobacterium tuberculosis, UniProt P9WI81); details: 1000 nM, read-out: Percent Control
# From the text: as §1
# [12] = molecular target: PIKFYVE (Homo sapiens, UniProt Q9Y2I7); details: compound concentration 100 nM; Entrez PIKFYVE; read-out: Percent Control
# From the text: as §1
# [13] = molecular target: TYK2(JH1domain-catalytic) (Homo sapiens, UniProt P29597); details: 1000 nM, read-out: Percent Control
# From the text: as §1
# [14] = molecular target: CAMK2G (Homo sapiens, UniProt Q13555); details: 1000 nM, read-out: Percent Control
# From the text: as §1
# [15] = molecular target: MLK2 (Homo sapiens, UniProt Q02779); details: 1000 nM, read-out: Percent Control
# From the text: as §1
# [16] = molecular target: MYLK (Homo sapiens, UniProt Q15746); details: 1000 nM, read-out: Percent Control
# From the text: as §1
# [17] = molecular target: BRAF (Homo sapiens, UniProt P15056); details: 1000 nM, read-out: Percent Control
# From the text: as §1
# [18] = molecular target: RIPK5 (Homo sapiens, UniProt Q6XUX3); details: compound concentration 100 nM; Entrez DSTYK; read-out: Percent Control
# From the text: as §1
# [19] = molecular target: PRKCQ (Homo sapiens, UniProt Q04759); details: 1000 nM, read-out: Percent Control
# From the text: as §1
# [20] = molecular target: EPHA1 (Homo sapiens, UniProt P21709); details: 1000 nM, read-out: Percent Control
# From the text: as §1
# [21] = molecular target: CAMK4 (Homo sapiens, UniProt Q16566); details: 1000 nM, read-out: Percent Control
# From the text: as §1
# [22] = molecular target: MYO3B (Homo sapiens, UniProt Q8WXR4); details: 1000 nM, read-out: Percent Control
# From the text: as §1
# [23] = molecular target: GAK (Homo sapiens, UniProt O14976); details: read-out: Percent Control
# Sequence of GAK (O14976 whole entry): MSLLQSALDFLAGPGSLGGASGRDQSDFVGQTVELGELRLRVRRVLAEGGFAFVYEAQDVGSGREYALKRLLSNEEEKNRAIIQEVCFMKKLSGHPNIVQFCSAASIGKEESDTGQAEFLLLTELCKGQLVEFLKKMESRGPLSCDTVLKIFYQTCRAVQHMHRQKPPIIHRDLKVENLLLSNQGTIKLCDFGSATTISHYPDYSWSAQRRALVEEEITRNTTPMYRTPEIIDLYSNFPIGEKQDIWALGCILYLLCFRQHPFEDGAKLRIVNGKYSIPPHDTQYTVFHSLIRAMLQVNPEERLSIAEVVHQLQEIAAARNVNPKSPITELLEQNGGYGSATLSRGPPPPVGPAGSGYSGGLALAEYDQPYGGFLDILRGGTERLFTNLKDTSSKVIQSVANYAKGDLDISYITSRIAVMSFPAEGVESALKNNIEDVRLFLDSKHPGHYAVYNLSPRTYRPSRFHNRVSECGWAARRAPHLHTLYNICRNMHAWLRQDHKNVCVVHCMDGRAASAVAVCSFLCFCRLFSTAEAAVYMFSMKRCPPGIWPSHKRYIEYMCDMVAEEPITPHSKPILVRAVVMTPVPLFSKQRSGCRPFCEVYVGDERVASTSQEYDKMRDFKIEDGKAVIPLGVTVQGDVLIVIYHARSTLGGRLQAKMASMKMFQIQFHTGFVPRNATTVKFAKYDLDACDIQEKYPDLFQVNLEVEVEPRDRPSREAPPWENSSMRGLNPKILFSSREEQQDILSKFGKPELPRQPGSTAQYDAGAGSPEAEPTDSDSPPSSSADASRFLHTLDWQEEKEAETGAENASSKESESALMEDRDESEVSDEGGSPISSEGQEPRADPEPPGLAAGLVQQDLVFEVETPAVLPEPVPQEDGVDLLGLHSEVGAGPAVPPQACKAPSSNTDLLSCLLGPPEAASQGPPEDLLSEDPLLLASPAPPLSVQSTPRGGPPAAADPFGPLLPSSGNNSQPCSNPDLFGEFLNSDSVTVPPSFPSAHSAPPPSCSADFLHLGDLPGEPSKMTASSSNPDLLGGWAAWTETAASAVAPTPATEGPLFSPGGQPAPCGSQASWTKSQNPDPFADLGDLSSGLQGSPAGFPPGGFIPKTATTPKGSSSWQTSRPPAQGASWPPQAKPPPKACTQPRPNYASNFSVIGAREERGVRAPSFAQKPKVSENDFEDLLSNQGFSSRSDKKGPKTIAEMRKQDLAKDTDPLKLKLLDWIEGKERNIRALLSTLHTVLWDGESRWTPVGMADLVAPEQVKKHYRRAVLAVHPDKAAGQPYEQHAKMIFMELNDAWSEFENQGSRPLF
# From the text: as §1
# [24] = molecular target: SRPK3 (Homo sapiens, UniProt Q9UPE1); details: compound concentration 100 nM; Entrez SRPK3; read-out: Percent Control
# From the text: as §1
# [25] = molecular target: WNK3 (Homo sapiens, UniProt Q9BYP7); details: 1000 nM, read-out: Percent Control
# From the text: as §1
# [26] = molecular target: FLT3 (Homo sapiens, UniProt P36888); details: read-out: Percent Control
# Sequence of FLT3 (P36888 27-993): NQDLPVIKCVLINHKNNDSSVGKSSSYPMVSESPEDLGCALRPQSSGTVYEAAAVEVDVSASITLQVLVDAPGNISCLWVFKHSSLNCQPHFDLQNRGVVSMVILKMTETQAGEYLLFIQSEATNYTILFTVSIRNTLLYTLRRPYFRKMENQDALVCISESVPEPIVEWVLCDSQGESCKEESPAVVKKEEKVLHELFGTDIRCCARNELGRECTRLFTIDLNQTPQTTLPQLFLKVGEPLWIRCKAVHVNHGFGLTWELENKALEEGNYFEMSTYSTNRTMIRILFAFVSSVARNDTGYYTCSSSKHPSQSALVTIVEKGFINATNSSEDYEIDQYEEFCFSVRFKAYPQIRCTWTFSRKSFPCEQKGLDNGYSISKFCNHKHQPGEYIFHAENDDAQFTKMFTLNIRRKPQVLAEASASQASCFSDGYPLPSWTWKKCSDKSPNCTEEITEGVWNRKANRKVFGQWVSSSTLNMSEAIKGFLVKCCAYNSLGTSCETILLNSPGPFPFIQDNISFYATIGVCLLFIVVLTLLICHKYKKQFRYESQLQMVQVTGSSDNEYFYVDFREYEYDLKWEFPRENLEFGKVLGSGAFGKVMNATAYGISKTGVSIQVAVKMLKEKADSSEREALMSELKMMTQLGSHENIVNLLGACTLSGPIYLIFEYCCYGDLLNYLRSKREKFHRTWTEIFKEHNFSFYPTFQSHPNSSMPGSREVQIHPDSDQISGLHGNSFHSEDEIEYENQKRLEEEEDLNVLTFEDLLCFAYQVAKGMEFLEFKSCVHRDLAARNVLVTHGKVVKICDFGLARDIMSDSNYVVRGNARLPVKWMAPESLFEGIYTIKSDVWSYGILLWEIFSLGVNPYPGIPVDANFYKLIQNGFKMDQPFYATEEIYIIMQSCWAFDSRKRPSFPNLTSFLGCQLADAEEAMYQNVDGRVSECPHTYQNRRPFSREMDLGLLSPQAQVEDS
# From the text: as §1
# [27] = molecular target: LATS1 (Homo sapiens, UniProt O95835); details: 1000 nM, read-out: Percent Control
# From the text: as §1
# [28] = molecular target: CDK8 (Homo sapiens, UniProt P49336); details: 1000 nM, read-out: Percent Control
# From the text: as §1
# [29] = molecular target: CAMK2B (Homo sapiens, UniProt Q13554); details: 1000 nM, read-out: Percent Control
# From the text: as §1
# [30] = molecular target: CIT (Homo sapiens, UniProt O14578); details: 1000 nM, read-out: Percent Control
# From the text: as §1
# [31] = molecular target: ICK (Homo sapiens, UniProt Q9UPZ9); details: 1000 nM, read-out: Percent Control
# From the text: as §1
# [32] = molecular target: HPK1 (Homo sapiens, UniProt Q92918); details: read-out: Percent Control
# Sequence of HPK1 (Q92918 whole entry): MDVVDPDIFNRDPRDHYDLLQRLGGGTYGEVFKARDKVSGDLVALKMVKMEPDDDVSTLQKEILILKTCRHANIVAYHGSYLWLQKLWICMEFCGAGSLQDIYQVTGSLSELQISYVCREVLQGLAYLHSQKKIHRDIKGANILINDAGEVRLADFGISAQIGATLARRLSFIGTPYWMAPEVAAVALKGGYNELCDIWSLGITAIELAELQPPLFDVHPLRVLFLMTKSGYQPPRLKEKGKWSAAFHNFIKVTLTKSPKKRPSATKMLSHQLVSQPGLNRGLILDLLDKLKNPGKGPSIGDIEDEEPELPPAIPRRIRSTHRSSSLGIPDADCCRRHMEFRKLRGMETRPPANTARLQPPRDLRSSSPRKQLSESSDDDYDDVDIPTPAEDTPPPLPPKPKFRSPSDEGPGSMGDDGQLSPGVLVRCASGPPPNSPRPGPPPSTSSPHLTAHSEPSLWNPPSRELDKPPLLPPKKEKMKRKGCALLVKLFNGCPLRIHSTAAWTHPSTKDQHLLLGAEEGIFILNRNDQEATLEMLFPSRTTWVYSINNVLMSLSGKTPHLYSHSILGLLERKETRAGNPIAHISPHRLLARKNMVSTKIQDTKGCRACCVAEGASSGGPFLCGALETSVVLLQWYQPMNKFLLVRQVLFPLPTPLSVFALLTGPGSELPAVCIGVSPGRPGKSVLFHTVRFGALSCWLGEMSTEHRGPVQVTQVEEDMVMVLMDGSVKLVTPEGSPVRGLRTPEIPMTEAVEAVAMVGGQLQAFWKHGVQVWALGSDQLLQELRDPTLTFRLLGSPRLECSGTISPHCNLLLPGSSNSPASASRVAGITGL
# From the text: as §1
# [33] = molecular target: SNARK (Homo sapiens, UniProt Q9H093); details: 1000 nM, read-out: Percent Control
# From the text: as §1
# [34] = molecular target: CDKL2 (Homo sapiens, UniProt Q92772); details: read-out: Percent Control
# From the text: as §1
# [35] = molecular target: CSF1R-autoinhibited (Homo sapiens, UniProt P07333); details: 1000 nM, read-out: Percent Control
# From the text: as §1
# [36] = molecular target: ALK (Homo sapiens, UniProt Q9UM73); details: read-out: Percent Control
# Sequence of ALK (Q9UM73 19-1620): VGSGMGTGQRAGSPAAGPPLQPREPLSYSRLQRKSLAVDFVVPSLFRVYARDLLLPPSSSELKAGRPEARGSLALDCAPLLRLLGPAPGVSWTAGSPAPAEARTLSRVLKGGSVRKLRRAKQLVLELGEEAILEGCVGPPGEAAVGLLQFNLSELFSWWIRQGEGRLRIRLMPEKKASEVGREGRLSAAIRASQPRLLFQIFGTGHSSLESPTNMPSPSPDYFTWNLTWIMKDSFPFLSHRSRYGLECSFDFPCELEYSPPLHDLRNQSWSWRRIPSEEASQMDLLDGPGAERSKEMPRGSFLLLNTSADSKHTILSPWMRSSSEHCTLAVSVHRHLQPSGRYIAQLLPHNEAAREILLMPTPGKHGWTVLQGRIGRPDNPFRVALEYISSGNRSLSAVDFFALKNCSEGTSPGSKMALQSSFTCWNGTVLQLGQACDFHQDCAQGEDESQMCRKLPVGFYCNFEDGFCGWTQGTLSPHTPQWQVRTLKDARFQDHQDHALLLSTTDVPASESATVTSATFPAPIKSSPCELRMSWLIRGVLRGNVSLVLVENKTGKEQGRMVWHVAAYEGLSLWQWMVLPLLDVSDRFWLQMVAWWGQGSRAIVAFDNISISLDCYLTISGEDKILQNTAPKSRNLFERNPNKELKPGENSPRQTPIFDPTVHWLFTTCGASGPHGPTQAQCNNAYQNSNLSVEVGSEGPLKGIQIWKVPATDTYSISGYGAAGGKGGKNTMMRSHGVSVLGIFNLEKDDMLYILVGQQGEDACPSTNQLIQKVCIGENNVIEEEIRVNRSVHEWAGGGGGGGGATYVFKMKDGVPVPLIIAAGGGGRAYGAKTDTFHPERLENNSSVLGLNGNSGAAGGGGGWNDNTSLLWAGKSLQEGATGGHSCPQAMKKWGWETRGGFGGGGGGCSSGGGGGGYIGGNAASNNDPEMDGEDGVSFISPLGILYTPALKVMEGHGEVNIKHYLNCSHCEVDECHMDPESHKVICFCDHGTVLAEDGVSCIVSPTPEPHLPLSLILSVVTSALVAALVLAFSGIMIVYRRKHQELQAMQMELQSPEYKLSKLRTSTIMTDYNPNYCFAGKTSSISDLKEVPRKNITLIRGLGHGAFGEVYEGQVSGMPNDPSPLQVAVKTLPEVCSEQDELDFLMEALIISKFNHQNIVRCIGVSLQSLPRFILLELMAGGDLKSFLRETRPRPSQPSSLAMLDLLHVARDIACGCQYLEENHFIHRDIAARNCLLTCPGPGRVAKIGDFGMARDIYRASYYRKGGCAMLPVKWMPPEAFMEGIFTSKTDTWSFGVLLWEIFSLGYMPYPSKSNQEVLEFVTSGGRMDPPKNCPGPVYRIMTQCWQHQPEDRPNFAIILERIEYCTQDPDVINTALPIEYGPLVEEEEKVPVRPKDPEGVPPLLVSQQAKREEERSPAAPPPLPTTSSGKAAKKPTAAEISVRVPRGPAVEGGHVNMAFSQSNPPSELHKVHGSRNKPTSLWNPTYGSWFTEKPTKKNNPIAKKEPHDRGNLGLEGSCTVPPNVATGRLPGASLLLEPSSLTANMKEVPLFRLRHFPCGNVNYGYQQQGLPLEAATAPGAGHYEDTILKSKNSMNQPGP
# From the text: as §1
# [37] = molecular target: AMPK-alpha1 (Homo sapiens, UniProt Q13131); details: 1000 nM, read-out: Percent Control
# From the text: as §1
smiles,measurement,setting,value
"CN1C(=O)[C@@H](N2CCc3c(nn(Cc4ccccc4)c3C(N)=O)C2=O)COc2cc(Cl)ccc21 [Compound 10, (S)-2-benzyl-6-(8-chloro-5-methyl-4-oxo-2,3,4,5-tetrahydrobenzo[b][1,4]oxazepin-3-yl)-7-oxo-4,5,6,7-tetrahydro-2H-pyrazolo[3,4-c]pyridine-3-carboxamide]",remaining binding at 1 µM,[1],96%
same,remaining binding at 1 µM,[2],93%
same,remaining binding at 1 µM,[3],78%
same,remaining binding at 1 µM,[4],96%
same,remaining binding at 1 µM,[5]; 1000 nM,99%
same,remaining binding at 0.1 µM,"[5]; compound concentration 100 nM, Entrez CDKL1",96%
same,remaining binding at 1 µM,[6],89%
same,remaining binding at 1 µM,[7],96%
same,remaining binding at 0.1 µM,[8],94%
same,remaining binding at 1 µM,[9],65%
same,remaining binding at 1 µM,[10]; 1000 nM,100%
same,remaining binding at 0.1 µM,"[10]; compound concentration 100 nM, Entrez CSNK1G2",91%
same,remaining binding at 1 µM,[11],83%
same,remaining binding at 0.1 µM,[12],98%
same,remaining binding at 1 µM,[13],74%
same,remaining binding at 1 µM,[14],84%
same,remaining binding at 1 µM,[15],94%
same,remaining binding at 1 µM,[16],86%
same,remaining binding at 1 µM,[17],79%
same,remaining binding at 0.1 µM,[18],91%
same,remaining binding at 1 µM,[19],91%
same,remaining binding at 1 µM,[20],87%
same,remaining binding at 1 µM,[21],95%
same,remaining binding at 1 µM,[22],96%
same,remaining binding at 1 µM,[23]; 1000 nM,100%
same,remaining binding at 0.1 µM,"[23]; compound concentration 100 nM, Entrez GAK",87%
same,remaining binding at 0.1 µM,[24],100%
same,remaining binding at 1 µM,[25],69%
same,remaining binding at 1 µM,[26]; 1000 nM,100%
same,remaining binding at 0.1 µM,"[26]; compound concentration 100 nM, Entrez FLT3",96%
same,remaining binding at 1 µM,[27],82%
same,remaining binding at 1 µM,[28],92%
same,remaining binding at 1 µM,[29],80%
same,remaining binding at 1 µM,[30],79%
same,remaining binding at 1 µM,[31],85%
same,remaining binding at 1 µM,[32]; 1000 nM,100%
same,remaining binding at 0.1 µM,"[32]; compound concentration 100 nM, Entrez MAP4K1",99%
same,remaining binding at 1 µM,[33],92%
same,remaining binding at 1 µM,[34]; 1000 nM,100%
same,remaining binding at 0.1 µM,"[34]; compound concentration 100 nM, Entrez CDKL2",100%
same,remaining binding at 1 µM,[35],74%
same,remaining binding at 1 µM,[36]; 1000 nM,100%
same,remaining binding at 0.1 µM,"[36]; compound concentration 100 nM, Entrez ALK",84%
same,remaining binding at 1 µM,[37],87%
